# How the values were obtained:
# [1] = system: human pancreatic cancer cell line PK-2; assay: Human pancreatic cancer PK-2 subcutaneous tumor in SCID mice; type: in vivo; settings: PK-2 s.c., 12 mg/kg i.p.
# Description: The in vivo suppressive effect of DHMEQ on proliferation of tumor cells in human pancreatic cancer. The human pancreatic cancer cell line PK-2 (2×10^6 cells) was inoculated subcutaneously in the right back of SCID mice (n=7) and then 12 mg/kg DHMEQ was injected intraperitoneally (i.p.) at a dose of 200 μl every other day for five days. Subsequently, the major axis and minor axis of the tumors were measured every seven days. The tumor volume was calculated as follows: (major axis)×(minor axis)^2×0.5.
# NF-κB [2] = target: T1, NF-κB (Homo sapiens, UniProt P19838+Q04206); assay: Gel shift assay of NF-κB/DNA binding in TNF-α-treated MCF-7 cells; type: cell-based; parameters: endogenous in cells; host or cells: MCF-7 cells treated with TNF-α; settings: 30 min
# Description: MCF-7 cells (endowed by Professor Adrian L. Harriswere, Oxford University) were plated in portions of 4 ml at 1×10^5 cells/ml in […] (2 dishes per condition). On the next day, the culture medium in the 60 mm dishes was adjusted to 2 ml, treated with DHMEQ prepared at 1, 3, and 10 μg/ml for 2 hours, and subsequently, with TNF-α at 20 ng/ml. The culture medium in 60 mm dishes was extracted with a sucker 30 min after TNF-α treatment, cells were washed twice with PBS− for external application, 1 ml of cold PBS− was added, the cells were scraped with a rubber policeman (twice), and transferred to a 15 ml centrifuge tube. Cells were collected from two 60 mm dishes into a 15 ml centrifuge tube, centrifuged at 1,000 rpm for 5 min, and the supernatant was removed. To this, 700 μl of cold PBS− was added. […] The following operations were performed in ice. […] Next, collected nuclei were suspended in 40 μl buffer C (20 mM HEPES-KOH: pH7.9 […] 25% glycerol, 420 mM NaCl, 1.5 mM MgCl2, 0.2 mM EDTA, 0.5 mM DTT, 0.2 mM PMSF) and allowed to stand for 20 min. […]
# Next, a Nick column was installed in the stand and a waste-liquid bottle was placed under the column. […] The column, fraction 1, and fraction 2 were measured individually with a Geiger counter and the readings confirmed fraction 2>the column>fraction 1. […]
# [3] = system: ATL cell line MT-2 in SCID mice; assay: Survival of SCID mice intraperitoneally inoculated with ATL cell line MT-2; type: in vivo; settings: for mice survived: p<0.05
# Description: First, five-week-old male SCID mice (CB17-scid/scid; SLC Japan, Inc (Shizuoka, Japan)) were treated for 3 to 5 days with 1 mg of IL-2 receptor antibody (TM-β1; J. Immunol. 147: 2222-2228, 1991), and intraperitoneally inoculated with the ATL cell line MT-2 (3 to 4×10^7 cells). Subsequently, the mice were intraperitoneally given 4 mg/kg bw or 12 mg/kg bw DHMEQ dissolved in 5% carboxymethyl cellulose (CMC; Sigma) solution three times a week for one month, and their survival probability and status were observed. […] The survival curve was calculated by the Kaplan-Mayer method, and the statistically significant difference was determined by the Cox-Mantel test.
# [4] = system: Hodgkin's lymphoma cell lines KMH-2 and L-540; assay: MTT assay, proliferation of Hodgkin's lymphoma cell lines; type: cell-based
# Description: Cells from the ATL cell lines (MT-1 and TL-Om1) and a control cell line (K562) were plated in 96-well plates at 1×10^5 cells/well and DHM2EQ was added at the desired final concentrations (2, 5, and 10 μg/ml). Cells to which the solvent DMSO had been added in equal volume (0 μg/ml) were used as […] incubation for 72 hours, cell viability was judged by the MTT assay. Relative MTT values were obtained as the ratio of the MMT values of DHM2EQ-treated cells to those of DHM2EQ-untreated cells, i.e., (MTT values of DHM2EQ-treated cells/MTT values of DHM2EQ-untreated cells)×100(%).
# DHM2EQ was added to the ATL cell lines (MT-1 and TL-Om1) and a control cell line (K562) at a final concentration of 10 μg/ml and the cells were incubated for 12, 24, 48, and 72 hours. The proliferation-inhibitory effect was examined by the MTT assay. Cells to which the solvent DMSO had been added in equal volume were used as controls. Relative MTT values were obtained in the same manner as the aforementioned (1).
# Time-course analysis and concentration dependence analysis of the inhibitory effect of DHM2EQ on proliferation of Hodgkin's lymphoma cells were performed in the same manner as in Example 2. As Hodgkin's lymphoma cells, the Hodgkin's lymphoma cell lines KMH-2 and L-540 were used.
# NF-κB [5] = target: T1, NF-κB; assay: Gel shift assay of constitutive NF-κB activation in ATL cell lines; type: cell-based; parameters: endogenous in cells; settings: MT-1 and TL-Om1; 10 μg/ml DHM2EQ, 12 hours
# Description: The ATL cell lines (MT-1 and TL-Om1) and the control cell lines (K562 and Jurkat+TNF), 2×10^6 cells each, were treated with 10 μg/ml DHM2EQ for 12 hours, and nuclear extract was prepared from each cell line. Likewise, nuclear extract was prepared also from the cell lines not treated with DHM2EQ. MT-1 and TL-Om1 are the cell lines transformed with HTLV-1; NF-κB is activated in these cell lines. K562 (myelocytic leukemia cell line) is a cell line in which constitutive NF-κB is not confirmed (a negative control), and Jurkat+TNF is a […] consensus oligomers (Promega) were end-labeled with [γ-^32P]-ATP and polynucleotide kinase (PNK) to prepare ^32P-labeled NF-κB probes.
# The equivalent of 2 μg of nuclear extract protein was mixed with NF-κB probes (the equivalent of 10,000 cpm) in a volume of 20 μl and reacted at room temperature for 30 min. The solution after the reaction was subjected to 7.5% polyacrylamide gel electrophoresis. The gel was then dried and exposed to an X-ray film.
# T1 sequence (Q04206 whole entry): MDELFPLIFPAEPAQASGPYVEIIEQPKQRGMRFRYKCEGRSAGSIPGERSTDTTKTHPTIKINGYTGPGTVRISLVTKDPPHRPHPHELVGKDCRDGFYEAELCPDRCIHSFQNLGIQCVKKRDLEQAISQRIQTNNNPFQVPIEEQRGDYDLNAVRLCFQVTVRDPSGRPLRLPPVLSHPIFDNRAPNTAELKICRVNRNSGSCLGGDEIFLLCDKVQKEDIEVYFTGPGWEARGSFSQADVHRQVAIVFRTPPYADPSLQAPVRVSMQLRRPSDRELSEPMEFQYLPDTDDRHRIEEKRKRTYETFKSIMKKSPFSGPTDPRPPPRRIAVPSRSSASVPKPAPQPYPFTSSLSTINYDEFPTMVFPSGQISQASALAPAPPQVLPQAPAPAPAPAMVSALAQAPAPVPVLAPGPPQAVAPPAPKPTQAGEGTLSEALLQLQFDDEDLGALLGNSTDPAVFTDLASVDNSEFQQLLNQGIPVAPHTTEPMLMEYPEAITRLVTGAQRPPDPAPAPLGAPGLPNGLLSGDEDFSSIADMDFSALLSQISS
# T1 sequence (P19838 1-433 limits assumed): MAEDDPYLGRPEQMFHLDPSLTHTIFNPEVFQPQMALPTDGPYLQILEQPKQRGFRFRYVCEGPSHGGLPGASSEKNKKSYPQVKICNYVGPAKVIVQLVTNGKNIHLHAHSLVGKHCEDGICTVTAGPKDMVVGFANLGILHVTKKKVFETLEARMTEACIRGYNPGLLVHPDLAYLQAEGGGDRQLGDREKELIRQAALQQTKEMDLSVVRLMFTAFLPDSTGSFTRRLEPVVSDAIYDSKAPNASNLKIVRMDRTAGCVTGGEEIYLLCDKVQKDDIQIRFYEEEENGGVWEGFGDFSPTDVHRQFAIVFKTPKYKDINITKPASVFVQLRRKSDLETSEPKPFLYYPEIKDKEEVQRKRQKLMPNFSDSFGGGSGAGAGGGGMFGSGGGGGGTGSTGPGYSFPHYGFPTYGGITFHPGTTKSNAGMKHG
structure (smiles),measurement,setting,value
"O=C(NC1=CC(=O)C2OC2C1O)c1ccccc1O (stereo not drawn) [DHMEQ, 5,6-epoxy-4-hydroxy-3-salicyloylamino-2-cyclohexenone]",proliferation of tumor cells (tumor volume),[1],significantly suppresses
same,binding between NF-κB and DNA,"NF-κB [2]; DHMEQ 10 μg/ml, TNF-α 20 ng/ml",completely inhibited
same,binding between NF-κB and DNA,"NF-κB [2]; DHMEQ 1, 3, 10 μg/ml for 2 hours, then TNF-α 20 ng/ml",concentration-dependently inhibited
same,mice survived,"[3]; 4 mg/kg i.p. three times a week for one month, about 200 days, control all 5 dead",4 out of 6
same,mice survived,"[3]; 12 mg/kg i.p. three times a week for one month, about 30 days, control 4 out of 5 dead",5 out of 6
same,"toxicity, anomalies in body weights etc.","[3]; SCID mice, up to three volumes of 4 mg/kg",toxicity was not noted
same,"cell proliferation, concentration dependence",[4],inhibited in proportion to the DHM2EQ concentrations added
same,"cell proliferation, time course",[4],inhibited in proportion to the DHM2EQ treatment time
same,signal of NF-κB (gel shift),NF-κB [5],almost lost
